The source of these data is patent US20240150313A1, “TRI-SUBSTITUTED INDOLE BINDING FUNCTION 3 (BF3) COMPOUNDS AND METHODS FOR THEIR USE” (The University of British Columbia, priority 2021, published 2024).

In general, IC50 refers to the concentration that gives 50% inhibition. High values mean lower potency, low ones higher potency. One may read the half-life as how long it takes for the measured level to halve.

Series [1] is described as follows: Microsomal stability (half-life). It is filed as in vitro ADME, human. To be noted: for half-life: human, microsomes, Table 6, read-out: Half-life.
In series [2] the test system is AR-mediated PSA expression in LNCaP cells. Briefly: Prostate-Specific Antigen (PSA) assay. The series is classed as cell-based, human. Conditions: Table 6. As to the method:
Prostate-Specific Antigen (PSA) Assay: The evaluation of PSA levels secreted into the media was performed in parallel to the eGFP assay using the same plates.

Series [3] concerns the target T1, androgen receptor (AR) transcriptional activity (Homo sapiens, UniProt P10275, T878A).
T1 sequence (P10275 1-920 T878A): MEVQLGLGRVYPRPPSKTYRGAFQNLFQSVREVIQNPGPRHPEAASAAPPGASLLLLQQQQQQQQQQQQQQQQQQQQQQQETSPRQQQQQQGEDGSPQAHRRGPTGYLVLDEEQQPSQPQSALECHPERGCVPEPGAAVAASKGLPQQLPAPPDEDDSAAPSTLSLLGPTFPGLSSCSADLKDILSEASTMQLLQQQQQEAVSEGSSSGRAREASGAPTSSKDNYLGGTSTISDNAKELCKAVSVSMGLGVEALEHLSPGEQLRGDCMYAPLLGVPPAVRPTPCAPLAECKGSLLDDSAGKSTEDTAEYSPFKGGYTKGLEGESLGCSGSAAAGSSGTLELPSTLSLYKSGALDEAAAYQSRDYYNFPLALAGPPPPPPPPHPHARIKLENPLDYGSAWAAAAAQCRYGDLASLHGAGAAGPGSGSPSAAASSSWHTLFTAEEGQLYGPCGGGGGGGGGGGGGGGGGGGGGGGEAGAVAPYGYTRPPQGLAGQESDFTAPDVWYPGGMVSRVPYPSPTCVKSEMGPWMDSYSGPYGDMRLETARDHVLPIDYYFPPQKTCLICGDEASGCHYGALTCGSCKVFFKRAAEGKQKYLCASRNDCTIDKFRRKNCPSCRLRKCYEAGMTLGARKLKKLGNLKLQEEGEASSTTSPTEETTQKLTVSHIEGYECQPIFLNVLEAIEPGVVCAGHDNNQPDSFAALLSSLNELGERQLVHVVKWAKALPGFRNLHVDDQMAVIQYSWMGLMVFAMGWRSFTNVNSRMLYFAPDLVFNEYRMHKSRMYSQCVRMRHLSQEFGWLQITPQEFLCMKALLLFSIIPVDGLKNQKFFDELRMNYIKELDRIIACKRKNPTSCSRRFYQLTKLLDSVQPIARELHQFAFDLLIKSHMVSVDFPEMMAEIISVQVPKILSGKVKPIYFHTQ
Briefly: eGFP cellular AR transcription assay. To be noted: for IC50-eGFP: Table 4, substitution on quinoline moiety of VPC-13566; for AR inhibition activity: eGFP assay.

The test system of series [4] is androgen-mediated transcription in LNCaP cells. Briefly: RNA-seq / GSEA on LNCaP cells. It is filed as cell-based, human.

As for `O=C(NCC1CC1)c1cccc2nc(-c3c[nH]c4c(F)c(F)c(F)cc34)ccc12` [Compound 13807, N-(Cyclopropylmethyl)-2-(5,6,7-trifluoro-1H-indol-3-yl)quinoline-5-carboxamide], the “microsome stability” value in series [1] is “good microsome stability”. Further, in series [2] (Homo sapiens, LNCaP), half-maximal inhibition (IC50) required 0.16 µM. For the compound `O=C(NC1CC1)c1cccc2nc(-c3c[nH]c4c(F)c(F)c(F)cc34)ccc12` [Compound 13795, N-Cyclopropyl-2-(5,6,7-trifluoro-1H-indol-3-yl)quinoline-5-carboxamide], in series [1], the “microsome stability” value is “good microsome stability” and the half-life stood at 4.35 h. The compound further gave a concentration for half-maximal inhibition (IC50) in series [2] (Homo sapiens, LNCaP) of 0.23 µM. For `Fc1cc2c(-c3ccc4c(-c5cncs5)c(F)ccc4n3)c[nH]c2c(F)c1F` [Compound 13799], the 50% inhibitory concentration (IC50) came out at 0.56 µM in series [3] and 0.75 µM in series [2] (Homo sapiens, LNCaP).

In the case of `O=C(NC1CC1)c1c(F)ccc2nc(-c3c[nH]c4c(F)c(F)c(F)cc34)ccc12` [Compound 13797], the concentration for half-maximal inhibition (IC50) was 1.98 µM in series [3] and 1.5 µM in series [2] (Homo sapiens, LNCaP). Turning to `Cc1cccc2c(-c3ccc4c(F)cccc4n3)c[nH]c12` [Compound 13623], in series [3], the IC50-eGFP result was “inactive”. The same measure, in the same setting: with `Cc1cccc2c(-c3ccc4c(O)cccc4n3)c[nH]c12` [Compound 13620] the entry was “inactive”. With `Cc1ccc2c(-c3ccc4ccccc4n3)c[nH]c2c1F` [Compound 13619], in series [3], the “AR inhibition activity” value was “weaker or even inactive”. For the compound `CC(C)NC(=O)c1c(F)ccc2nc(-c3c[nH]c4c(F)c(F)c(F)cc34)ccc12` [Compound 13802], the 50% inhibitory concentration (IC50) in series [3] is greater than 10 µM; in series [2] (Homo sapiens, LNCaP), greater than 10 µM. Turning to `OC(c1cccc2nc(-c3c[nH]c4c(F)c(F)c(F)cc34)ccc12)C(F)(F)F` (stereo not drawn) [Compound 13804], it took 32 µM to reach half-maximal inhibition in series [3] (IC50). For `O=C(NCC(F)F)c1cccc2nc(-c3c[nH]c4c(F)c(F)c(F)cc34)ccc12` [Compound 13808, N-(2,2-Difluoroethyl)-2-(5,6,7-trifluoro-1H-indol-3-yl)quinoline-5-carboxamide], the “microsome stability” value in series [1] is “good microsome stability”. With `Fc1cc2c(-c3ccc4c(-c5cnco5)cccc4n3)c[nH]c2c(F)c1F` [Compound 13794], the half-maximal inhibitory concentration (IC50) in series [3] was greater than 10 µM; in series [2] (Homo sapiens, LNCaP), greater than 10 µM. “2-(2-(5,6,7-Trifluoro-1H-indol-3-yl)quinolin-5-yl)thiazole [Compound 13801]” registered an IC50 in series [2] greater than 10 µM. Take `CN(C)C(=O)c1cccc2nc(-c3c[nH]c4c(F)c(F)c(F)cc34)ccc12` [Compound 13791]: the IC50 is greater than 10 µM in series [3] and greater than 10 µM in series [2] (Homo sapiens, LNCaP).

As to `Fc1cc(Cl)cc2c(-c3ccc4ccccc4n3)c[nH]c12` [Compound 13641], in series [3], the “AR inhibition activity” value is “weaker or even inactive”.

For `Fc1cc2c(-c3ccc4c(-c5cncs5)cccc4n3)c[nH]c2c(F)c1F` [Compound 13793, 5-(2-(5,6,7-Trifluoro-1H-indol-3-yl)quinolin-5-yl)thiazole], the half-life in series [1] is 1.73 h. Besides, the half-maximal inhibitory concentration (IC50) in series [2] (Homo sapiens, LNCaP) was found to be 0.33 µM.

With `CNC(=O)c1c(F)ccc2nc(-c3c[nH]c4c(F)c(F)c(F)cc34)ccc12` [Compound 13796], the half-maximal inhibitory concentration (IC50) in series [3] was 5.48 µM; in series [2] (Homo sapiens, LNCaP), 0.95 µM. In turn, `CN(C)C(=O)c1c(F)ccc2nc(-c3c[nH]c4c(F)c(F)c(F)cc34)ccc12` [Compound 13803] displayed an IC50 in series [3] greater than 10 µM. On to `CNC(=O)c1ccc(N2C(=S)N(c3ccc(C#N)c(C(F)(F)F)c3)C(=O)C2(C)C)cc1F` [Enzalutamide, reference compound], for which the “GSEA normalized enrichment score (canonical AR genes)” value in series [4] (10 nM DHT) is on record as −2.31. Also, in series [4] (compared to vehicle), the differentially expressed genes is given as 586 genes, the downregulated genes was found to be 372 and the upregulated genes is given as 214. For the same compound, the “p53 pathway” value in series [4] (with androgen) is recorded as “not observed”. The compound `CNC(=O)c1cccc2nc(-c3c[nH]c4c(F)c(F)c(F)cc34)ccc12` [Compound 13719] gave an IC50 in series [2] (Homo sapiens, LNCaP) of 0.13 µM.
